From patent US9155778B2, “Tripeptides that down regulate the activity of plasma membrane transporters including sodium-D-glucose cotransporter SgIt1” (JULIUS-MAXMILLIANS-UNIVERSITAT WURZBURG, priority 2005, dated 2015)
Like-named read-outs stand apart in the source and are kept apart here. Peptide text beside a SMILES is read from it.

How the values were obtained:
hPEPT1 = target: T1, hPEPT1 (Homo sapiens, UniProt P46059); assay: Electrogenic peptide transport by hPEPT1 in oocytes, two-electrode voltage clamp; assay type: cell-based; details: 5 mM peptide
T1 construct: expressed in transfected cells; host or cells: Xenopus laevis oocytes (30 ng cRNA per oocyte)
T1 sequence (P46059 1-708): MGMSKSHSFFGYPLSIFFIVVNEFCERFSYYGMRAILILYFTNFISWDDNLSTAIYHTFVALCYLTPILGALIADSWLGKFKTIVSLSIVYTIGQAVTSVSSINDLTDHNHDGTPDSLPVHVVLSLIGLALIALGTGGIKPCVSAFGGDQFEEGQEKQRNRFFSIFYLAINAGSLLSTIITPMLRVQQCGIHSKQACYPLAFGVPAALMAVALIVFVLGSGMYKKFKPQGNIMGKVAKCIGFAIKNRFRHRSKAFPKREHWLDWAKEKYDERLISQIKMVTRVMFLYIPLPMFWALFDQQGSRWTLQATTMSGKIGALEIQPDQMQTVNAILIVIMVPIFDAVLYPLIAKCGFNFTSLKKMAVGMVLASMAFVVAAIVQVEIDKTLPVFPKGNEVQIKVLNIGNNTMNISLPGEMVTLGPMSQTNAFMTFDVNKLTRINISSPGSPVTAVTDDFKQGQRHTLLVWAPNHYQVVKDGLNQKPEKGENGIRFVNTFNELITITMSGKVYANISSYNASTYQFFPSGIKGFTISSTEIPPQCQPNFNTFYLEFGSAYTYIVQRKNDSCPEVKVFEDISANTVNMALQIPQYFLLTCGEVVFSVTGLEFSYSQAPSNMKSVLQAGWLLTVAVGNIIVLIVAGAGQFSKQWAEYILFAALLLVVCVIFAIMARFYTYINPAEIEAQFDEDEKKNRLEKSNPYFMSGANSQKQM
Method: (§1) The oocytes were incubated for three days at 16° C. in ORi buffer (in mM: 5 HEPES-Tris, pH 7.4, 100 NaCl, 3 KCl, 2 CaCl2, and 1 MgCl2). […] The oocytes were superfused with Ori buffer titrated to pH 6.5, the membrane potential of the oocytes was clamped to −40 mV, and inward current induced by superfusion with Ori buffer (pH 6.5) containing 5 mM of a control dipeptide or 5 mM of the tested tripeptide was measured. • (D) Expression and Purification of hRS1

RS1 = assay: Immunostaining of RS1 at the TGN in LLC-PK1 cells after brefeldin A; assay type: cell-based; details: 2 μg/ml brefeldin A, 1 or 5 min, subconfluent LLC-PK1 cells
Method: For immunostaining, LLC-PK1 cells were grown on coverslips to about 50% confluence. The cells were washed twice with washing buffer (5 mM 3-(N-morpholino)propanesulfonic acid-NaOH, pH 7.4, 100 mM NaCl, 3 mM KCl, 2 mM CaCl2, and 1 mM MgCl2), fixed for 12 min with 4% (w/v) paraformaldehyde diluted in washing buffer, and washed twice again. Free aldehyde groups were quenched by 10 min incubation with washing buffer containing 40 mM glycine. For immunoreactions, washed cells were permeabilized by a 10-min incubation with washing buffer containing 0.25% (w/v) TritonX-114, and incubated over night at 4° C. with primary antibodies diluted in washing buffer. The dilutions of primary antibodies were as follows: rabbit-anti-RS1-Ab 1:50 (Valentin (2000), Biochim. Biophys. Acta, 1468, 367-380); QIS30 directed against SGLT1 1:400 (Kipp (2003), Am. J. Physiol., 285, C737-C749), sheep-anti-TGN46 1:125 (from Diagnostic International, Schriesheim, Germany). […]
The specificity of the antibodies was controlled as follows. […] In controls, no cross-reactivity of the used secondary antibodies with false primary antibodies used in the same experiment was detected. […]

rbSGLT1 = target: T2, rbSGLT1 (Oryctolagus cuniculus, UniProt P11170); assay: rbSGLT1 expressed [14C]AMG uptake in oocytes after peptide injection; assay type: cell-based, rabbit; details: 50 nl containing 3 mM of each peptide, 30 min, 50 μM [14C]AMG; compared with hSGLT1
T2 construct: expressed in transfected cells; host or cells: Xenopus laevis oocytes (cRNA injection)
T2 sequence (P11170 1-662): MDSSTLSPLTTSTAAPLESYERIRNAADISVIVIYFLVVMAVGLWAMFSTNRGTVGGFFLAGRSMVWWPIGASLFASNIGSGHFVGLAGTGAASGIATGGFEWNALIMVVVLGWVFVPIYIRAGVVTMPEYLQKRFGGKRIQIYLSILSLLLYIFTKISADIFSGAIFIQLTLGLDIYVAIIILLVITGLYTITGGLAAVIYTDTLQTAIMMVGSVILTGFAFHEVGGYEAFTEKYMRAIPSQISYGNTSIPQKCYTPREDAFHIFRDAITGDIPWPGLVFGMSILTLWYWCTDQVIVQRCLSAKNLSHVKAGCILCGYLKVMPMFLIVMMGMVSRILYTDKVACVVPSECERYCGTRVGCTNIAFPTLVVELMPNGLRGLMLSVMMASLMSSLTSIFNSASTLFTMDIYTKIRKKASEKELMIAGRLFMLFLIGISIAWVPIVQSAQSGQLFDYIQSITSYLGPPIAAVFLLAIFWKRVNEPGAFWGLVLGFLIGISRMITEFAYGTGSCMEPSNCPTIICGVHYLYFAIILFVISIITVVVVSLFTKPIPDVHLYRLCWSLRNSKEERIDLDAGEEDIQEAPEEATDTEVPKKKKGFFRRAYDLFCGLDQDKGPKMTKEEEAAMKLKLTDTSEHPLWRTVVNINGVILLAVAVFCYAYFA
Method: as §1
To develop drugs on the basis of the identified peptides animal models are required.

hSGLT1 = target: T3, hSGLT1 (Homo sapiens, UniProt P13866); assay: hSGLT1 expressed [14C]AMG uptake in Xenopus oocytes after injection of hRS1 protein or peptides; assay type: cell-based
T3 construct: expressed in transfected cells; host or cells: Xenopus laevis oocytes (cRNA injection)
T3 sequence (P13866 1-664): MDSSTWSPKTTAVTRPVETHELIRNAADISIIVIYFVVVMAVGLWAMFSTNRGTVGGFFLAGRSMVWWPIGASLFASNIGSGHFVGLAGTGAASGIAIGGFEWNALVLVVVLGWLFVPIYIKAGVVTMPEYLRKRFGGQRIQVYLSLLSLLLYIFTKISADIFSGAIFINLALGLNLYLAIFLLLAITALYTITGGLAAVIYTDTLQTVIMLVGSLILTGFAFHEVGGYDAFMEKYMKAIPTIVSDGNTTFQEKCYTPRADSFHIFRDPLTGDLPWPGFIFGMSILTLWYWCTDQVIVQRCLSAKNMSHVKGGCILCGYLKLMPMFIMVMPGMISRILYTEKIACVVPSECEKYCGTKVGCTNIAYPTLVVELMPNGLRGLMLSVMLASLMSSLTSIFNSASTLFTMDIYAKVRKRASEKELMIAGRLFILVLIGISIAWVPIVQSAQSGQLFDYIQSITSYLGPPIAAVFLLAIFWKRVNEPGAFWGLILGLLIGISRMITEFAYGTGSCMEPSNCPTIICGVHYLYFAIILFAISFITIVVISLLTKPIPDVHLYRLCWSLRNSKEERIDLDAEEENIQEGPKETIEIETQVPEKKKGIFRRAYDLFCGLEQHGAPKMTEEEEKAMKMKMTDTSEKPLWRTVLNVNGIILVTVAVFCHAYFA

[1] = target: T4, human organic cation transporter 1 (hOCT1) (Homo sapiens, UniProt O15245); assay: [14C]TEA uptake expressed by hOCT1 in oocytes; assay type: cell-based; details: intracellular AMG concentration of 0.1 mM
T4 construct: expressed in transfected cells; host or cells: oocytes
T4 sequence (O15245 1-554): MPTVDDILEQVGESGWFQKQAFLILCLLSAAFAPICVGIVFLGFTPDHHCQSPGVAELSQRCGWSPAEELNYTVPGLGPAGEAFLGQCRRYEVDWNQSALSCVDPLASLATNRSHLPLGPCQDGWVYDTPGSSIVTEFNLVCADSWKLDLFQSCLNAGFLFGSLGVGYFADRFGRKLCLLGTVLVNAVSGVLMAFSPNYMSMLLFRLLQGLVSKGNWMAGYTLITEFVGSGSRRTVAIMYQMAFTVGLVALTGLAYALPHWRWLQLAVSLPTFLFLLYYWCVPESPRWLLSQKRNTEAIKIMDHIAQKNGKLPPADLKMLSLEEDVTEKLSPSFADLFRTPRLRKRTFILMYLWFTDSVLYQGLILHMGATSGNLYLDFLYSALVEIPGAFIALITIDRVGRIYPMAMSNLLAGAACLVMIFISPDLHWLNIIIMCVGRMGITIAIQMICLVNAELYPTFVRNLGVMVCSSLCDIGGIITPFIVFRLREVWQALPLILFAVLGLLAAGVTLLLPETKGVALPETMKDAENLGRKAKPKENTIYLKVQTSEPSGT
Method: Corresponding measurements were performed in the presence of intracellular AMG concentrations of 0.1 mM, <0.01 mM or 10 mM.

NCC(=O)N[C@@H](CCC(N)=O)C(=O)O [GC, glycylglutamine, reference compound] (H-Gly-Gln-OH)
inward current induced in oocytes expressing hPEPT1 (hPEPT1; pH 6.5, clamped to −40 mV): significant inward currents | inward current in control oocytes not injected with hPEP1-cRNA (hPEPT1; pH 6.5, data not shown): no inward currents

C[C@H]1CCC/C=C/[C@@H]2C[C@H](O)C[C@H]2[C@H](O)/C=C/C(=O)O1 [brefeldin A]
RS1 immunoreactivity at the TGN / perinuclear compartment (RS1): released from the TGN

IKPSDSDRIEP [Isoleucine-Lysine-Proline-Serine-Aspartic acid-Serine-Aspartic acid -Arginine-Isoleucine-Glutamic acid-Proline]
effect on glucose uptake expressed by rbSGLT1 (rbSGLT1): same effect | inhibition of glucose uptake expressed by hSGLT1 (hSGLT1): about 50%

SDSDRIEP [Serine-Aspartic acid-Serine-Aspartic acid-Arginine-Isoleucine-Glutamic acid-Proline]
inhibition of glucose uptake expressed by hSGLT1 (hSGLT1): about 50% | inhibition of hSGLT1 expressed AMG uptake after stimulation of protein kinase C (hSGLT1): not changed | inhibition of hSGLT1 expressed AMG uptake with coexpressed dominant negative mutant of dynamin I (hSGLT1): not changed | inhibitory effect on expression of hSGLT1 when the exocytotic pathway is blocked (hSGLT1): could be prevented

SVQPCQENQ [reference compound]
inhibition of [14C]AMG uptake by injected peptide (hSGLT1; 50 nl/oocyte containing 1.5 mM peptide, 30 min before uptake): No inhibition

B1: hRS1 protein: purified human regulatory protein RS1 with six C-terminal histidines, SEQ ID NO: 2 (protein, listed as Homo sapiens)
chain: MSSLPTSDGFNHPARSSGQSPDVGNPMSLARSVSASVCPIKPSDSDRIEPKAVKALKASAEFQLNSEKKEHLSLQDLSDHASSADHAPTDQSPAMPMQNSSEEITVAGNLEKSAERSTQGLKFHLHTRQEASLSVTSTRMHEPQMFLGEKDWHPENQNLSQVSDPQQHEEPGNEQYEVAQQKASHDQEYLCNIGDLELPEERQQNQHKIVDLEATMKGNGLPQNVDPPSAKKSIPSSECSGCSNSETFMEIDTAQQSLVTLLNSTGRQNANVKNIGALDLTLDNPLMEVETSKCNPSSEILNDSISTQDLQPPETNVEIPGTNKEYGHYSSPSLCGSCQPSVESAEESCPSITAALKELHELLVVSSKPASENTSEEVICQSETIAEGQTSIKDLSERWTQNEHLTQNEQCPQVSFHQAISVSVETEKLTGTSSDTGREAVENVNFRSLGDGLSTDKEGVPKSRESINKNRSVTVTSAKTSNQLHCTLGVEISPKLLAGEEDALNQTSEQTKSLSSNFILVKDLGQGIQNSVTDRPETRENVCPDASRPLLEYEPPTSHPSSSPAILPPLIFPATDIDRILRAGFTLQEALGALHRVGGNADLALLVLLAKNIVVPT
modifications: C-terminal His6 tag
hOCT1 expressed [14C]TEA uptake after injection [1]: appears to be inhibited | inhibitory effect on expression of hSGLT1 when the exocytotic pathway is blocked (hSGLT1): could be prevented | inhibition of AMG uptake by injected hRS1 protein in the presence of BTXB (hSGLT1; 5 ng hRS1 plus 1.7 ng BTXB, 30 min): no inhibition | inhibition of hSGLT1 expressed AMG uptake after stimulation of protein kinase C (hSGLT1; PKC stimulated with DOG or PMA): increased | inhibition of hSGLT1 expressed AMG uptake with coexpressed dominant negative mutant of dynamin I (hSGLT1; dominant negative dynamin I coexpressed): reduced | inhibition of hSGLT1 expressed AMG uptake when endocytosis is inhibited (hSGLT1; with clorpromazin, imipramin or filipin, data not shown): unchanged
